Tests used:
[1] = system: Mouse melanoma B16-BL6 cells; experiment: Combined administration of LPA and 5-FU, tumor growth in B16-BL6 cell tumor-bearing mice; assay type: in vivo; details: B16-BL6 tumors; LPA 3 mg/kg i.p. once daily for seven days; 5-FU 100 mg/kg i.p. on days 7 and 14
Method: LLC cells were subcutaneously inoculated into C57BL/6 NCrSlc mice aged 8 weeks in the same manner as in Example 1. An LPA administration solution was prepared in the same manner as in Example 1. The anticancer drug used was 5-FU (Kyowa Hakko Kirin Co., Ltd.). The 5-FU was prepared as a solution in physiological saline (Otsuka Pharmaceutical Co., Ltd.). On day 7 post-inoculation of LLC cells, mice with a tumor volume of 30 to 50 mm^3 were selected and subjected to the test. The mice were divided into four groups: control group, 5-FU group, LPA group and 5-FU/LPA group (n=3). LPA (3 mg/kg in 100 μL PBS) or 5-FU (100 mg/kg in 100 μL PBS) or PBS (100 μL) was administered intraperitoneally. To 5-FU/LPA group, both LPA and 5-FU were administered intraperitoneally. LPA and PBS were administered once daily for consecutive seven days. 5-FU was administered twice in total, once a week for two weeks (on days 7 and 14 post-inoculation). The tumor size was measured over time after start of administration. The tumor volume was calculated by the formula: volume=length×width×height×0.5. Mice at 2 weeks after start of administration were photographed with a digital camera under anesthesia with pentobarbital. The tumors were harvested and photographed with a digital camera.
Mouse melanoma B16-BL6 cells were used. […]

[2] = system: lumen of tumor blood vessels of LLC cell tumors; experiment: Structural changes in lumen of tumor blood vessels (scanning electron microscopy); assay type: in vivo; details: LLC tumor-bearing mice, LPA 3 mg/kg i.p., 24 hours after administration
Method: LLC cells were subcutaneously inoculated into C57BL/6 NCrSlc mice aged 8 weeks (females, SLC, Inc.) in the same manner as in Example 1. An LPA administration solution was prepared in the same manner as in Example 1. Mice on day 9 post-inoculation of LLC cells (individuals with a tumor volume of 60 to 80 mm^3) were subjected to the experiment. The mice were divided into two groups: control group and LPA group (n=3). LPA (3 mg/kg in 100 μL PBS) or PBS (100 μL) was administered intraperitoneally. At 24 hours after LPA or PBS administration, mice were perfusion fixed under anesthesia with pentobarbital (Kyoritsu Seiyaku Corporation). The fixative used was 0.1 M phosphate buffer (pH 7.4) containing 2% formaldehyde and 2.5% glutaraldehyde. Tumors were then harvested and immersed in the same fixative as that used for perfusion and shaken at 4° C. overnight. The specimens were further immersed in 0.1 M phosphate buffer (pH 7.4) containing 1% osmium tetroxide and 0.5% potassium ferrocyanide. The specimens were dehydrated in an ascending series of ethanol, then the alcohol was replaced with t-butyl alcohol and the specimens were freeze-dried.

[3] = system: newly formed blood vessels in the choroid; experiment: Age-related macular degeneration model (laser-induced choroidal neovascularization), dextran leakage; assay type: in vivo, mice; details: LPA 3 mg/kg i.p. on days 5 and 6 after laser irradiation, day 7, vs control
Text: C57BL/6 NCrSlc mice aged 8 weeks (females, SLC, Inc.) were used. Tropicamide (Santen Pharmaceutical) was dropped in the eyes of the mice under anesthesia with pentobarbital (Kyoritsu Seiyaku Corporation) to dilate the pupil. The retina surrounding the optic disc of the ocular fundus was irradiated with a laser (Ultima 2000 SE) at four sites in each of the eyes of the mice under observation with a slit lamp microscope for the induction of choroidal neovascularization. The laser irradiation conditions were 150 mW, 0.05 seconds, and 75 μm. LPA (3 mg/kg in 100 μL PBS) was intraperitoneally administered to LPA group (n=3) on days 5 and 6 after laser irradiation, and PBS (100 μL) was intraperitoneally administered to control group (n=3) on days 5 and 6 after laser irradiation. On day 7 after laser irradiation (at 48 hours after first administration of LPA), FITC-labeled 70 kDa dextran (Sigma) was administered to the tail vein of the mice under anesthesia with pentobarbital. The dextran was prepared as a solution by dissolving and diluting the FITC-labeled 70 kDa dextran in PBS to a concentration of 5 mg/mL, and 50 μL of the solution was used for the administration. At 10 minutes after dextran administration, the eyeballs were collected. […]

lysophosphatidic acid [LPA]
tumor growth (tumor volume) [1]: some inhibitory effects on tumor growth as compared with the control
intraluminal surface of tumor blood vessels [2]: the intraluminal surface of the blood vessels was very smooth
leakage of FITC-labeled 70 kDa dextran from newly formed blood vessels [3]: the leakage of dextran was significantly inhibited
size of the newly formed blood vessels in the choroid [3]: no significant difference was observed

Source: patent publication US20170112861A1, “DRUG DELIVERY ENHANCER COMPRISING SUBSTANCE FOR ACTIVATING LYSOPHOSPHOLIPID RECEPTORS” (Osaka University, priority 2014, published 2017)
